Data published in BindingDB's records for doi:10.1016/s0960-894x(00)00026-3 (Universit&#224, 2000).

Assay: Inhibition of Clostridium histolyticum collagenase using a linear regression program
`CC(C(=O)NO)N(Cc1ccc([N+](=O)[O-])cc1)S(=O)(=O)c1cccc2c(N(C)C)cccc12` (stereo unspecified) [2-[(5-Dimethylamino-naphthalene-1-sulfonyl)-(4-nitro-benzyl)-amino]-N-hydroxy-propionamide] gave a Ki of 7 µM. `CC(C(=O)NO)N(Cc1ccc([N+](=O)[O-])cc1)C(=O)Nc1ccc(Cl)cc1` (stereo unspecified) [2-[3-(4-Chloro-phenyl)-1-(4-nitro-benzyl)-ureido]-N-hydroxy-propionamide] gave a Ki of 18 µM. Work on `CC(C(=O)NO)N(Cc1ccc([N+](=O)[O-])cc1)C(=O)Nc1ccc(F)cc1F` (stereo unspecified) [2-[3-(2,4-Difluoro-phenyl)-1-(4-nitro-benzyl)-ureido]-N-hydroxy-propionamide] yielded a Ki of 15 µM. `CC(C(=O)O)N(Cc1ccc([N+](=O)[O-])cc1)S(=O)(=O)c1ccc([N+](=O)[O-])cc1` (stereo unspecified) [2-[(4-Nitro-benzenesulfonyl)-(4-nitro-benzyl)-amino]-propionic acid] showed a Ki of 5.3 µM. Work on `CC(C(=O)O)N(Cc1ccc([N+](=O)[O-])cc1)S(=O)(=O)c1cccc(NC(=O)OC(C)(C)C)c1` (stereo unspecified) [2-[(3-tert-Butoxycarbonylamino-benzenesulfonyl)-(4-nitro-benzyl)-amino]-propionic acid] yielded a Ki of 2.6 µM. Work on `CC(C(=O)NO)N(Cc1ccc([N+](=O)[O-])cc1)C(=S)NC(=O)c1ccccc1` (stereo unspecified) [2-[3-Benzoyl-1-(4-nitro-benzyl)-thioureido]-N-hydroxy-propionamide] yielded a Ki of 6 µM. Work on `CC(C(=O)NO)N(Cc1ccc([N+](=O)[O-])cc1)S(=O)(=O)c1cc(Cl)ccc1Cl` (stereo unspecified) [2-[(2,5-Dichloro-benzenesulfonyl)-(4-nitro-benzyl)-amino]-N-hydroxy-propionamide] yielded a Ki of 13 µM. For `CC(C(=O)O)N(Cc1ccc([N+](=O)[O-])cc1)C(=O)NS(=O)(=O)c1ccc(F)cc1` (stereo unspecified) [2-[({[(4-fluorophenyl)sulfonyl]amino}carbonyl)(4-nitrobenzyl)amino]propanoic acid], the Ki was 3.3 µM. `CC(C(=O)O)N(Cc1ccc([N+](=O)[O-])cc1)S(=O)(=O)c1ccc(NC(=O)OC(C)(C)C)cc1` (stereo unspecified) [2-[(4-tert-Butoxycarbonylamino-benzenesulfonyl)-(4-nitro-benzyl)-amino]-propionic acid] gave a Ki of 2.4 µM. Work on `CC(C(=O)O)N(Cc1ccc([N+](=O)[O-])cc1)C(=O)Nc1cccc(Cl)c1` (stereo unspecified) [2-[3-(3-Chloro-phenyl)-1-(4-nitro-benzyl)-ureido]-propionic acid] yielded a Ki of 6.1 µM. Work on `CC(C(=O)O)N(Cc1ccc([N+](=O)[O-])cc1)C(=O)Nc1ccc(Cl)c(Cl)c1` (stereo unspecified) [2-[3-(3,4-Dichloro-phenyl)-1-(4-nitro-benzyl)-ureido]-propionic acid] yielded a Ki of 5 µM. In the case of `CC(C(=O)O)N(Cc1ccc([N+](=O)[O-])cc1)S(=O)(=O)c1cc(Cl)ccc1Cl` (stereo unspecified) [2-[(2,5-Dichloro-benzenesulfonyl)-(4-nitro-benzyl)-amino]-propionic acid], the Ki is reported as 3.6 µM. For `Cc1ccccc1S(=O)(=O)NC(=O)N(Cc1ccc([N+](=O)[O-])cc1)C(C)C(=O)NO` (stereo unspecified) [N-hydroxy-2-[({[(2-methylphenyl)sulfonyl]amino}carbonyl)(4-nitrobenzyl)amino]propanamide], the Ki was 8 µM. For `CC(C(=O)NO)N(Cc1ccc([N+](=O)[O-])cc1)C(=O)Nc1ccc(Cl)c(Cl)c1` (stereo unspecified) [2-[3-(3,4-Dichloro-phenyl)-1-(4-nitro-benzyl)-ureido]-N-hydroxy-propionamide], the Ki was 13 µM. `CC(C(=O)NO)N(Cc1ccc([N+](=O)[O-])cc1)S(=O)(=O)c1c(F)c(F)c(F)c(F)c1F` (stereo unspecified) [N-Hydroxy-2-[(4-nitro-benzyl)-pentafluorobenzenesulfonyl-amino]-propionamide] gave a Ki of 5 µM. For `CC(C(=O)NO)N(Cc1ccc([N+](=O)[O-])cc1)C(=O)NS(=O)(=O)c1ccc(Cl)cc1` (stereo unspecified) [2-[({[(4-chlorophenyl)sulfonyl]amino}carbonyl)(4-nitrobenzyl)amino]-N-hydroxypropanamide], the Ki was 7 µM. `CC(C(=O)NO)N(Cc1ccc([N+](=O)[O-])cc1)C(=O)Nc1cccc(Cl)c1` (stereo unspecified) [2-[3-(3-Chloro-phenyl)-1-(4-nitro-benzyl)-ureido]-N-hydroxy-propionamide] gave a Ki of 14 µM. `Cc1cc(C)c(S(=O)(=O)N(Cc2ccc([N+](=O)[O-])cc2)C(C)C(=O)NO)c(C)c1` (stereo unspecified) [N-Hydroxy-2-[(4-nitro-benzyl)-(2,4,6-trimethyl-benzenesulfonyl)-amino]-propionamide] showed a Ki of 17 µM. `Cc1ccc(S(=O)(=O)NC(=O)N(Cc2ccc([N+](=O)[O-])cc2)C(C)C(=O)O)cc1` (stereo unspecified) [2-[({[(4-methylphenyl)sulfonyl]amino}carbonyl)(4-nitrobenzyl)amino]propanoic acid] showed a Ki of 2.5 µM. Work on `CC(C(=O)NO)N(Cc1ccc([N+](=O)[O-])cc1)S(=O)(=O)c1cccc2ccccc12` (stereo unspecified) [N-Hydroxy-2-[(naphthalene-1-sulfonyl)-(4-nitro-benzyl)-amino]-propionamide] yielded a Ki of 7 µM. With `CC(C(=O)NO)N(Cc1ccc([N+](=O)[O-])cc1)S(=O)(=O)c1ccccc1` (stereo unspecified) [2-[Benzenesulfonyl-(4-nitro-benzyl)-amino]-N-hydroxy-propionamide] the Ki was 54 µM. `Cc1ccccc1S(=O)(=O)NC(=O)N(Cc1ccc([N+](=O)[O-])cc1)C(C)C(=O)O` (stereo unspecified) [2-[({[(2-methylphenyl)sulfonyl]amino}carbonyl)(4-nitrobenzyl)amino]propanoic acid] gave a Ki of 3.1 µM. In the case of `CC(C(=O)NO)N(Cc1ccc([N+](=O)[O-])cc1)S(=O)(=O)c1cccc(C(F)(F)F)c1` (stereo unspecified) [N-Hydroxy-2-[(4-nitro-benzyl)-(3-trifluoromethyl-benzenesulfonyl)-amino]-propionamide], the Ki is reported as 6 µM. `CC(C(=O)O)N(Cc1ccc([N+](=O)[O-])cc1)S(=O)(=O)c1cccc([N+](=O)[O-])c1` (stereo unspecified) [2-[(3-Nitro-benzenesulfonyl)-(4-nitro-benzyl)-amino]-propionic acid] gave a Ki of 5.5 µM. Compound `CC(C(=O)O)N(Cc1ccc([N+](=O)[O-])cc1)S(=O)(=O)c1ccc(F)cc1` (stereo unspecified) [2-[(4-Fluoro-benzenesulfonyl)-(4-nitro-benzyl)-amino]-propionic acid] has a Ki of 10 µM. Compound `CC(C(=O)NO)N(Cc1ccc([N+](=O)[O-])cc1)S(=O)(=O)c1ccc(NC(=O)OC(C)(C)C)cc1` (stereo unspecified) [{4-[(1-Hydroxycarbamoyl-ethyl)-(4-nitro-benzyl)-sulfamoyl]-phenyl}-carbamic acid tert-butyl ester] has a Ki of 10 µM. Compound `CC(C(=O)O)N(Cc1ccc([N+](=O)[O-])cc1)C(=O)Nc1ccc(F)cc1F` (stereo unspecified) [2-[3-(2,4-Difluoro-phenyl)-1-(4-nitro-benzyl)-ureido]-propionic acid] has a Ki of 6.2 µM. In the case of `CC(C(=O)NO)N(Cc1ccc([N+](=O)[O-])cc1)Sc1ccc([N+](=O)[O-])cc1` (stereo unspecified) [N-Hydroxy-2-[(4-nitro-benzyl)-(4-nitro-phenylsulfanyl)-amino]-propionamide], the Ki is reported as 11 µM. In the case of `CC(C(=O)O)N(Cc1ccc([N+](=O)[O-])cc1)Sc1ccccc1[N+](=O)[O-]` (stereo unspecified) [2-[(4-Nitro-benzyl)-(2-nitro-phenylsulfanyl)-amino]-propionic acid], the Ki is reported as 6.3 µM. `Cc1cc(C)c(S(=O)(=O)N(Cc2ccc([N+](=O)[O-])cc2)C(C)C(=O)O)c(C)c1` (stereo unspecified) [2-[(4-Nitro-benzyl)-(2,4,6-trimethyl-benzenesulfonyl)-amino]-propionic acid] showed a Ki of 6 µM. With `CC(C(=O)O)N(Cc1ccc([N+](=O)[O-])cc1)S(=O)(=O)c1ccc(Cl)cc1` (stereo unspecified) [2-[(4-Chloro-benzenesulfonyl)-(4-nitro-benzyl)-amino]-propionic acid] the Ki was 9 µM. Work on `COc1ccc(S(=O)(=O)N(Cc2ccc([N+](=O)[O-])cc2)C(C)C(=O)O)cc1` (stereo unspecified) [2-[(4-Methoxy-benzenesulfonyl)-(4-nitro-benzyl)-amino]-propionic acid] yielded a Ki of 5.2 µM. Work on `Cc1ccc(S(=O)(=O)N(Cc2ccc([N+](=O)[O-])cc2)C(C)C(=O)NO)cc1` (stereo unspecified) [N-Hydroxy-2-[(4-nitro-benzyl)-(toluene-4-sulfonyl)-amino]-propionamide] yielded a Ki of 36 µM. In the case of `COc1ccc(S(=O)(=O)N(Cc2ccc([N+](=O)[O-])cc2)C(C)C(=O)O)cc1NC(=O)OC(C)(C)C` (stereo unspecified) [2-[(3-tert-Butoxycarbonylamino-4-methoxy-benzenesulfonyl)-(4-nitro-benzyl)-amino]-propionic acid], the Ki is reported as 2.1 µM. `CC(C(=O)O)N(Cc1ccc([N+](=O)[O-])cc1)S(=O)(=O)c1cccc(C(F)(F)F)c1` (stereo unspecified) [2-[(4-Nitro-benzyl)-(3-trifluoromethyl-benzenesulfonyl)-amino]-propionic acid] gave a Ki of 0.3 µM.

Assay: Inhibition of Clostridium histolyticum collagenase (ChC) using a linear regression program
`CC(C(=O)NO)N(Cc1ccc([N+](=O)[O-])cc1)S(=O)(=O)c1ccc([N+](=O)[O-])c(Cl)c1` (stereo unspecified) [2-[(3-Chloro-4-nitro-benzenesulfonyl)-(4-nitro-benzyl)-amino]-N-hydroxy-propionamide] showed a Ki of 9 µM.
